Measured values as given in patent US9745554B2, “Method of improving cell proliferation of pancreatic progenitor cells in a pancreatic cell culture” (ReNeuron, Inc., priority 2006, dated 2017).

Tests used:
human pancreatic cells = assay: Real-time quantitative RT-PCR of endocrine and progenitor marker gene expression; assay type: cell-based; details: additive in control media; pancreatic endocrine cultures; FIG. 7
Experimental: To determine the effects of survival media on endocrine lineage cells, we studied the gene expression of our expanded pancreatic cells by quantitative RT-PCR as shown for example in FIG. 6. Total cellular RNA was isolated from cells using Nucleospin RNA II kits (BD Biosciences, Inc.). Reverse transcription was performed using 5 μg of total RNA M-MLV reverse transcriptase (Invitrogen), 10 mM DTT, 0.5 mM dNTP (Sigma, St. Louis, Mo.), 25 ng/μl of Oligo(dt) 12-18 primer (Sigma), RNase inhibitor (Sigma) and 1× First-strand buffer (Invitrogen). The mixture was heated to 65° C. for 5 minutes. Reverse transcriptase was added and incubated at 37° C. for 60 minutes. Reactions were terminated and real-time quantitative PCR was performed according to the manufacturer's instructions using Light Cycler machines 1.0 and 2.0 (Roche) in the presence of […] of 5-fold diluted cDNA. Insulin, glucagon, Somatostatin, PDX-1, Neuro-D1, CK-19, amylase, HNF3-beta, and β-actin primer sequences were designed based on published human mRNA sequences. Data for mRNA was presented according to calculations using absolute quantification methods, or as a fold increase over the control. All expression levels of the different genes were normalized to β-actin. […]

caspases 3 and 7 = assay: Apo-ONE caspase 3/7 assay on cell lysates; assay type: cell-based, human; details: FIG. 1
Experimental: In some embodiments, the presence of caspases 3 and 7 and the extent of cell death is measured using the APO-ONE™ caspase assay (see, e.g., FIG. 1) according to the manufacturers instructions (Promega Inc., Madison, Wis.).
One of the hallmarks of apoptosis is caspase activation. The downstream caspases 3 and 7 have a consensus cleavage sequence DEVD (SEQ ID NO: 1). For determination of the extent of apoptosis in our cultures, we used the Apo-ONE assay system (Promega), according to the manufacturer's instructions (FIG. 1). Cells were plated on 96 well plates, and cell lysates were prepared in a buffer that supports caspase activity (Promega, Madison, Wis.) and analyzed on a fluorescent plate reader using the Apo-ONE caspase 3/7 fluorescent assay (Promega, Madison, Wis.) at an excitation wavelength was 485 run and an emission wavelength was 530 nm.

[1] = system: cultured pancreatic cells
Experimental: At least one exogenous growth factor is added to the survival media in an amount sufficient to increase the level of activated Akt in the cultured cells. Typically, the growth factors are added in a concentration range from about 10 ng/ml to about 100 ng/ml of culture media (e.g., 10, 15, 20, 30, 40, 50, 60, 70, 80, 90, 100 ng/ml of culture media). Non-limiting exemplary growth factors suitable for use with the present invention may include members of the IGF, EGF, and PDGF families.

Compound | insulin mRNA normalized to β-actin mRNA, fold increase over control media alone (human pancreatic cells) [fold] | caspase activation in pancreatic cells (caspases 3 and 7; 1 μM inhibitor, P0 adherent pancreatic cells) | concentration dependence of caspase inhibition (caspases 3 and 7; three independent experiments) | works as exogenous growth factor with the invention [1]
CC(C)C(NC(=O)c1ccc2ccccc2n1)C(=O)NC(CC(=O)O)C(=O)COc1c(F)cccc1F (stereo not shown) [OPH-109, non-O-methylated Q-VD-OPH] | 10 | completely reversed the caspase activation | concentration dependence of caspase inhibition | 
VEGF |  |  |  | did not work
